According to patent US9394544B2, “Ameliorating oxidative stress in neurodegenerative disease via Nox1 targeting” (University of Central Florida Research Foundation, Inc., priority 2013, dated 2016):

Key:
rat SN = experiment: Western blot / dot blot / protein carbonyl immunoblot of SN lysates, PQ rat model; format: in vivo
Experimental: The experiments were performed on rats, in accordance with the National Institutes for Health Guide for the Care and Use of Laboratory Animals. All procedures were approved by the local Animal Care and Use Committee. Male Wistar rats (8-10 weeks; Charles River) were maintained in a temperature/humidity-controlled environment under a 12 h light/dark cycle with ad libitum access to food and water. As depicted in FIG. 13A, each animal received four intraperitoneal injections, separated by 1 d, of either vehicle (saline) or PQ (10 mg/kg body weight; b.w.), according to a previously published dose (Manning-Bog et al., 2002; Harraz et al., 2008; Cristovao et al., 2009). All animals were weighed at day 1 and 12. In the studies using the paradigm depicted in FIG. 13A, 4 weeks before starting PQ intraperitoneal injection, animals were stereotaxically injected with various viral constructs at the right SN using the following coordinates: mediolateral, +2.0; anteroposterior, −5.3; dorsoventral, −6.8. Animals were organized into four groups: vector+vehicle: stereotaxically injected with adeno-associated virus (AAV) particles containing a green fluorescent protein (GFP) vector (vector) and then intraperitoneally injected with saline (vehicle) (n=10); vector+PQ: stereotaxically injected with vector and then intraperitoneally injected with PQ (n=10); shNox1+PQ: stereotaxically injected with AAV particles harboring Nox1 shRNA and then intraperitoneally injected with PQ (n=10); shNox1+vehicle: stereotaxically injected with Nox1 shRNA and then intraperitoneally injected with vehicle (n=8). AAV containing GFP vector was used as a negative control. Five days after the last PQ intraperitoneal injection, animals were killed. For Western blot analysis, brains were collected and total protein lysates from SN were prepared. For immunohistochemical analysis, animals were intracardially perfused before collecting the brains.
For Western blot, brain tissues were lysed on ice in radioimmunoprecipitation assay buffer containing 50 mMTris/HCl, pH 8.0, 150 mM NaCl, 2 mM sodium orthovanadate, 1% Nonidet-P40 (NP-40), 0.5% sodium deoxycholate, and 0.1% SDS, containing 1% of a protease inhibitor mixture (AEBSF, pepstatinA, E-64, bestatin, leupeptin, and aprotinin). The soluble fraction was obtained and equal amounts of cell lysate protein were loaded in each lane of a 12% SDS-PAGE or 4/10% to 20% polyacrylamide gel. After electrophoresis and transfer onto a polyvinylidene difluoride (PVDF) membrane, specific protein bands were detected using appropriate primary antibodies (rabbit anti-Nox1, rabbit anti-α-synuclein, mouse anti-Ubiquitin, mouse anti-tyrosine hydroxylase (TH), and mouse anti-β-actin) and secondary antibodies conjugated to alkaline phosphatase or […] peroxidase (anti-rabbit or anti-mouse) followed by Enhanced Chemifluorescence (ECF) detection or Enhanced Chemiluminescence (ECL).
For dot blot, brain tissues were homogenized in a buffer containing 0.32 M sucrose, 1 mM NaHCO3, 1 mM MgCl2, 0.5 mM CaCl2, and 1% of a protease inhibitor mixture (AEBSF, pepstatinA, E-64, bestatin, leupeptin, and aprotinin). The soluble fraction was obtained by centrifugation at 1000×g and 5 μl of each sample, containing the same amount of protein, was spotted in a PVDF membrane. Membrane was air dried for 4 h and blocked overnight at 4° C. in 5% nonfat dry milk TBST (10 mM Tris-HCl, pH 7.8, 100 mM NaCl, 0.05% Tween 20) solution. Protein spots were detected using the primary antibody, rabbit anti-A11 oligomer (0.5 μg/ml) from Invitrogen, and secondary antibody conjugated to […] peroxidase (anti-rabbit) followed by ECL detection.
The levels of protein carbonyl were measured in protein extracts from the SN tissues, using the OxiSelect Protein Carbonyl Immunoblot Kit (Cell Biolabs), according to the manufacturer's instructions, with small modifications. […]

α-synuclein = experiment: α-Synuclein aggregation (immunocytochemistry, PK resistance, A11) in N27 cells exposed to PQ; format: cell-based, rat; conditions: for increase in aggregated α-synuclein-positive cells vs control: 24 h
Experimental: The same Nox1 shRNA used for AAV2 construct was cloned into a pLVX-shRNA2 vector containing zsGreen1 (Clontech). To make lentiviral particles, ViraPower Lentiviral Expression System (Invitrogen) was used. […]. For 6-well plates, 8 μg of each plasmid was mixed in a 1:1:1:1 ratio in 100 μl of Xfect polymer buffer and then added to the cells. After 48 h, the viral-containing medium was harvested and centrifuged briefly at 500×g for 10 min to remove cellular debris and supernatant recovered and kept at −80° C. until used.
After each respective treatment, cells were fixed in 4% paraformaldehyde (PFA) for 20 min and permeabilized with 0.1% Triton X-100 in PBS for 10 min. Blocking was performed by incubation with 20% goat or donkey serum in PBS containing 0.1% Tween 20 for 90 min at room temperature. The cells were then incubated for 120 min at room temperature with the following primary antibodies, according to the aim of the experiment: goat anti-Nox1 (1:50), rabbit anti-TH (1:10,000), mouse anti-Flag (1:150), mouse anti-α-synuclein (1:150), and rabbit anti-A11 (2.5 μg/ml). After washing, cells were incubated for 120 min with the appropriate secondary antibodies conjugated to Alexa Fluor 647 or Alexa Fluor 488 (1:1000). For nuclear visualization coverslips were incubated with 2 μM Hoechst for 10 min. For quantification of Flag^+ and α-synuclein^+ cells, >30 different fields per coverslip were analyzed on a Nikon inverted fluorescent microscope under a 20× and 40× magnification.
Immunocytochemistry for proteinase K (PK)-resistant α-synuclein was performed based on a methodology reported previously (Neumann et al., 2002), with some modifications. Briefly, fixed cells were permeabilized with 0.1% Tween 20 and then digested for 30 min at 37° C. with PK (10 μg/ml). PK was inactivated with 3 M guanidine thiocyanate in 10 mM Tris-HCl solution for 10 min. Between each step, cells were washed gently three times with PBS. Cells were then incubated for 60 min with blocking solution containing 10% donkey serum followed by an overnight incubation with mouse anti-α-synuclein antibody (1:150). The day after, cells were incubated with secondary antibodies conjugated to Alexa Fluor 647 donkey anti-mouse for 60 min and with 2 μM Hoechst solution for 10 min. For PK-resistant α-synuclein evaluation in rat SN, 40 μm sections from 4% PFA fixed tissues were washed twice in distillated water with 0.1% Tween 20, and then incubated for 30 min in TBST. The tissues were incubated for 90 min at 55° C. with 50 μg/ml PK in TBST and further washed three times in TBS. PK was denatured by incubating the tissues in a 3 M guanidine thiocyanate in 10 mM Tris-HCl solution for 10 min. […]

C[n+]1ccc(-c2cc[n+](C)cc2)cc1 [PQ, paraquat]
increase in protein carbonyl levels after PQ exposure (rat SN; ipsilateral SN): 95%
increase in ubiquitin protein levels, vector+PQ vs vector+vehicle (rat SN; ipsilateral SN): 43%
increase in α-synuclein protein levels, vector+PQ vs vector+vehicle (rat SN; ipsilateral SN, Western blot): 54%
increase in A11-positive oligomers, vector+PQ vs vector+vehicle (rat SN; ipsilateral SN, dot blot): 68%
TH protein levels compared with vector+vehicle (rat SN; ipsilateral SN, vector+PQ group, or Nox1 knocked down before PQ): 65%
Nox1 protein level in the SN, higher than vehicle group (rat SN; rats, PQ 10 mg/kg i.p. x4): 58%
increase in α-synuclein protein levels in the SN (Western blot) (rat SN; rats, PQ 10 mg/kg i.p. x4, vs vehicle): 50%
Nox1 protein, higher than vector+vehicle (rat SN; vector+PQ group, ipsilateral SN): 70%
A11 immunoreactivity vs controls (α-synuclein): high A11 immunoreactivity
PK-resistant α-synuclein immunoreactivity (α-synuclein): higher PK-resistant α-synuclein immunoreactivity
increase in aggregated α-synuclein-positive cells vs control (α-synuclein; 800 μM): 62%
increase in aggregated α-synuclein-positive cells vs control (α-synuclein; 1000 μM): 64%
